The values that follow are results of earlier work, collected in patent US20220305218A1, “LUMINAL OXYGEN DELIVERY AND DEVICE FOR TREATING DISEASES AND CONDITIONS ASSOCIATED WITH STRICT ANAEROBIC MICROORGANISMS” (priority 2021, published 2022).

With `Cc1ncc([N+](=O)[O-])n1CCO` [metronidazole], the resistance rate with C. difficile strains is roughly 1%.

Take `O=O` [oxygen]: the “time C. difficile can persist in a vegetative state” value in the data set with C. difficile (room air (20% oxygen, 160 mm Hg)) is roughly 24 h. The “oxygen partial pressure at which C. difficile is unable to grow” value in the data set with C. difficile (strict, obligate anaerobe) is no less than 3 mm Hg.

For the compound `CN[C@H](CC(C)C)C(=O)N[C@H]1C(=O)N[C@@H](CC(N)=O)C(=O)N[C@H]2C(=O)N[C@H]3C(=O)N[C@H](C(=O)N[C@H](C(=O)O)c4cc(O)cc(O)c4-c4cc3ccc4O)[C@H](O)c3ccc(c(Cl)c3)Oc3cc2cc(c3O[C@@H]2O[C@H](CO)[C@@H](O)[C@H](O)[C@H]2O[C@H]2C[C@](C)(N)[C@H](O)[C@H](C)O2)Oc2ccc(cc2Cl)[C@H]1O` [vancomycin], the resistance rate with C. difficile strains is reported as roughly 1%.
